Measurements from patent publication US7799954B2, “Dicarbonyl derivatives and methods of use” (Abraxis BioScience, LLC, priority 2006, dated 2010).
pIC50: −log10 of the molar value.

test system: MX-1 (human breast carcinoma) cells; assay: in vitro growth inhibition, Promega CellTiter Blue Cell Viability Assay; format: cell-based; settings: MX1, 72 h
Experimental: The cytotoxicity assay was quantitated using the Promega CellTiter Blue Cell Viability Assay. Briefly, cells (5000 cells/well) were plated onto 96-well microtiter plates in RPMI 1640 medium supplemented with 10% FBS and incubated at […] in a humidified 5% CO2 atmosphere. After 24 h, cells were exposed to various concentrations of compound in DMSO and cultured for another 72 h. 100 ul of media were removed and 20 ul of Promega CellTiter Blue reagent were added to each well and shaken to mix. After 4 hours of incubation at 37° C. in a humidified 5% CO2 atmosphere, the plates were read at 544 ex/620 em. The fluorescence produced is proportional to the number of viable cells. After plotting fluorescence produced against drug concentration, the IC50 was calculated as the […] of the resulting non-linear regression.

Compound | pIC50
CN(C)C1=CC(=O)C(C2C(=O)C=C(N(C)C)CC2(C)C)C(C)(C)C1 (centres unmarked) [Compound 1] | < 3.00
COc1ccc(/C=C/C(=O)CC2CCC=CC2=O)cc1OC (centres unmarked) [Compound 23] | 6.77
O=C1c2ccccc2CCC1C1CCc2ccccc2C1=O (centres unmarked) [Compound 6] | < 3.00
COc1cc(/C=C/C(=O)/C=C/C(=O)O)cc(OC)c1OC [Compound 30] | 4.47
O=C1CCC(c2ccccc2)CC1C1CC(c2ccccc2)CCC1=O (centres unmarked) [Compound 3] | 4.53
CCCC/C=C/C(=O)CCC(=O)/C=C/CCCC [Compound 15] | 5.10
O=C(/C=C/c1ccccc1)CC1CCC=CC1=O (centres unmarked) [Compound 21] | 6.38
O=C(O)/C=C/C(=O)/C=C/c1ccccc1 [Compound 28] | 5.40
COc1ccc(/C=C/C(=O)/C=C/C(=O)N2CCN(c3ccccc3)CC2)cc1OC [Compound 38] | 6.60
O=C(CCC(=O)C1=CCCCC1)C1=CCCCC1 [Compound 10] | < 3.00
CC1(C)C=CC(=O)C(C2CC(C)(C)C=CC2=O)C1 (centres unmarked) [Compound 2] | 4.25
COc1ccc2c(c1)CCC(C1CCc3cc(OC)ccc3C1=O)C2=O (centres unmarked) [Compound 5] | < 3.00
C/C=C/C(=O)C(C)C1CCC=CC1=O (centres unmarked) [Compound 20] | 6.28
CC(C)=CC(=O)CCC(=O)C=C(C)C [Compound 11] | 4.99
CCOC1=CC(=O)C(C2CCC(OCC)=CC2=O)CC1 (centres unmarked) [Compound 4] | < 3.00
C/C=C/C(=O)C(C)C(C)C(=O)/C=C/C (centres unmarked) [Compound 7] | 5.58
O=C(/C=C/c1cccc(Cl)c1)CCC(=O)/C=C/c1cccc(Cl)c1 [Compound 14] | 4.25
O=C1OC(c2ccccc2)CC1C1CC(c2ccccc2)OC1=O (centres unmarked) [Compound 9] | 3.33
O=C(/C=C/c1ccccc1)CCC(=O)/C=C/c1ccccc1 [Compound 13] | 4.42
COc1ccc(/C=C/C(=O)/C=C/C(=O)O)cc1OC [Compound 29] | 4.54
COc1ccc(/C=C/C(=O)/C=C/C(=O)N2CCN(c3ccncc3)CC2)cc1OC [Compound 37] | 6.92
O=C(/C=C/c1ccc2c(c1)OCO2)CC1CCC=CC1=O (centres unmarked) [Compound 24] | 6.15
CC(C(=O)c1ccccc1)C(C)C(=O)c1ccccc1 (centres unmarked) [Compound 12] | < 3.00

same assay, conditions: MX1, MX-1 cells, 72 h exposure, CellTiter Blue fluorescence 544 ex/620 em, read-out: IC50

Compound | pIC50
C/C=C/C(=O)C(C)CC(=O)/C=C/c1ccccc1 (centres unmarked) [Compound 22] | 5.68
CCOC(=O)c1cc(/C=C/c2ccccc2)no1 [Compound 51] | 3.27
O=C1c2cc(F)ccc2OCC1C1COc2ccc(F)cc2C1=O (centres unmarked) [Compound 18] | < 3.00
O=C(O)c1cc(/C=C/c2ccccc2)no1 [Compound 50] | < 3.00
CCCN(C)C(=O)/C=C/C(/C=C/c1ccccc1)=N\OC [Compound 43] | 3.77
COC(=O)/C=C/C(=O)Nc1ccc(F)cc1 [Compound 41] | 3.92
CC(C)=C/C=C/C(=O)CCC(=O)/C=C/C=C(C)C [Compound 16] | 4.79
COc1cc(/C=C/C(=O)/C=C/C(=O)N2CCN(C)CC2)cc(OC)c1OC [Compound 39] | 6.10
CCCN(C)C(=O)c1cc(/C=C/c2ccccc2)no1 [Compound 52] | 3.71
CO/N=C(\C=C\c1ccc(OC)c(OC)c1)CC1CCC=C/C1=N\OC (centres unmarked) [Compound 42] | 3.89
O=C(/C=C/C(=O)Nc1ccccc1)/C=C/c1ccccc1 [Compound 33] | 5.49
CCOC(=O)CCC(=O)/C=C/c1ccccc1 [Compound 27] | 4.11
O=C(/C=C/c1ccc(O)cc1)CC1CCC=CC1=O (centres unmarked) [Compound 25] | 6.80
COc1ccc(/C=C/C(/C=C/C(=O)N2CCN(C)CC2)=NOCc2ccccc2)cc1OC [Compound 48] | 4.63
CCCN(C)C(=O)/C=C/C(=O)/C=C/c1ccccc1 [Compound 32] | 6.41
CON=C(/C=C/C(=O)N1CCN(C)CC1)/C=C/c1ccc(OC)c(OC)c1 [Compound 46] | 3.32
COc1cc(/C=C/C(=O)/C=C/C(=O)N2CCN(c3ccncc3)CC2)cc(OC)c1OC [Compound 40] | 6.32
COc1ccc(/C=C/C(=O)/C=C/C(=O)Nc2ccccc2)cc1OC [Compound 35] | 6.05
COc1ccc(/C=C/C(/C=C/C(=O)N2CCN(C)CC2)=NO)cc1OC [Compound 45] | 3.43
O=C(/C=C/c1cccc(C(F)(F)F)c1)CC1CCC=CC1=O (centres unmarked) [Compound 26] | 5.59
CCCN(C)C(=O)/C=C/C(=O)/C=C/c1ccc(OC)c(OC)c1 [Compound 34] | 6.55
CON=C(/C=C/C(=O)N1CCN(C)CC1)/C=C/c1cc(OC)c(OC)c(OC)c1 [Compound 49] | < 3.00
CCOC(=O)/C=C/C(=O)/C=C/c1ccccc1 [Compound 31] | 5.66
COc1ccc(/C=C/C(=O)CCC(=O)/C=C/c2ccc(OC)c(OC)c2)cc1OC [Compound 17] | 4.14
CC(C)=CC(=O)CC1CCC=CC1=O (centres unmarked) [Compound 19] | 5.98
COc1ccc(/C=C/C(/C=C/C(=O)N2CCN(C)CC2)=NOc2ccccc2)cc1OC [Compound 47] | 5.06
COc1ccc(/C=C/C(=O)/C=C/C(=O)N2CCN(C)CC2)cc1OC [Compound 36] | 6.77
